The results in this text go back to PubChem BioAssay AID1963829 (Molecular Pharmacology Branch, DTP, NCI, 2024).

By viability, T/C is commonly meant the ratio of treated to control. One may read the pIC50 as the negative decadic logarithm of the IC50, by convention in mol/L.

The test system of the assay is 935938-334-R-J1-PDC complex spheroid viability. Put plainly: Anticancer human tumor 935938-334-R-J1-PDC patient-derived small intestine adenocarcinoma cell line growth inhibition [POLQ]. Particulars: for viability, T/C: stronger effect = lower value. Here is the method: Multicellular complex tumor spheroid response to Polymerase (POL) inhibitors (novobiocin, ART-558, RP6685) in combination with a variety of drugs and investigational agents in selected tumor cell lines
The POL inhibitors (novobiocin, ART-558, and RP6685) were evaluated both individually and in combination with standard of care and investigational anticancer small molecules within a complex spheroid model of solid tumors. . Complex spheroids include a stromal component modeled by human endothelial cells (HUVEC) and fibroblasts modeled by human mesenchymal stem cells (MSCs). The concentration ranges selected for each drug and investigational agent were based upon clinically achievable concentrations if the clinical Cmax of the agent was known.
Compounds. The drugs and investigational agents: novobiocin (NSC847541), ART-558 (NSC835418), RP-6685 (NSC848927), peposertib (NSC802822), ceralasertib (NSC780249), elimusertib (NSC800525), camonsertib (NSC841442), AZD-1390 (NSC803789), olaparib (NSC753686), talazoparib (NSC767125), rucaparib (NSC756644), sotorasib (NSC818433), MRTX-1133 (NSC836407), SN-38 (NSC673596), topotecan (NSC609699), epotoside (NSC141540), doxorubicin (NSC123127), gemcitabine (NSC613327), 5-fluorouracil (NSC19893), paclitaxel (NSC125973), vemurafenib (NSC761431), MSA-2 (NSC828583), SN-011 (NSC837082), adavosertib (NSC754352), prexasertib (NSC758257), carboplatin (NSC241240) and oxaliplatin (NSC266046), were obtained from the National Cancer Institute (NCI) Developmental Therapeutics Program Chemical Repository (21). The FDA-approved anticancer drug set is available from the Developmental Therapeutics Program at https://dtp.cancer.gov/organization/dscb/obtaining/. […] The stock solutions were prepared in dimethyl sulfoxide (DMSO, Sigma-Aldrich, St. Louis, MO, cat. D2650), except for the platinum compounds which were prepared in saline (Quality Biological, Gaithersburg, MD, cat. 114-055-101), at 800-fold the tested concentration and stored at -70 degrees C prior to their use. All drugs and investigational agents were tested over a range starting from a high concentration at or near the clinical Cmax and decreasing in half-log increments. If the clinical Cmax for an agent had not been determined, the highest concentration tested was 10 microM, except for SN-38, which was tested at a high concentration of 1 microM.
Cell Culture. All cells were maintained in an incubator at 37 degrees C and 5% CO2 with 95% humidity. The PDC lines were cultured according to standard operating procedures established by the NCI PDMR (https://pdmr.cancer.gov). Table 3 of the manuscript, lists the cell lines along with the number of the three cell types plated to form the mct-spheroids and media for tumor cell growth. After thawing, all PDC lines, except 997537-175-T-J1-PDC and 415267-285-R-J2-PDC, were cultured in Matrigel-coated flasks prepared with a working solution of 1X Ham's F-12 nutrient mix, without supplementation (Thermo Fisher Scientific, cat. 11765054), 100 U/mL penicillin-streptomycin (Thermo Fisher Scientific, cat. 15140122), and 2.5% Matrigel (Corning Inc., Corning, NY, cat. 354248) for the first three passages. The two PDC lines 997537-175-T-J1-PDC and 415267-285-R-J2-PDC were cultured on uncoated flasks. The 857933-349-R-J2-PDC line was cultured in 6C/Colon 1B media containing advanced DMEM/F-12 (Thermo Fisher Scientific, cat. 12634028), 10 mM HEPES (Thermo Fisher Scientific, cat. 15630080), 1X GlutaMAX supplement (Thermo Fisher Scientific, cat. 35050061), 0.1 mg/mL primocin (InvivoGen, San Diego, CA, cat. ant-pm-2), 10% defined fetal bovine serum, heat inactivated (HyClone Laboratories Inc., Logan, UT, cat. SH30070.03HI), 50% L-WRN conditioned media (ATCC, cat. CRL-3276), 1.25 mM N-Acetyl-L-cysteine (Sigma-Aldrich, cat. A9165), 10 mM nicotinamide (Sigma-Aldrich, cat. N0636), 1X B-27 supplement (Thermo Fisher Scientific, cat. 17504044), 1X N-2 supplement (Thermo Fisher Scientific, cat. […]

Molecules are shown by their SMILES. pIC50: −log10 of the molar value. “And” between values parts separate entries of the source, which are not always exact repeats. Identical values can stand only once. Bounds are passed on as bounds.
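Further: spheroids exposed to drugs for seven days before viability read.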
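Wherever viability, T/C is given: 100% = DMSO vehicle control wells.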

For `COc1ccc([C@@H](O)c2cc(-c3ncnc4cc(N5CCOCC5)ccc34)c(F)cc2Cl)nn1`, the viability, T/C is 92.9% and 78.8% and 78% (compound 0.0316 µM); 81.3% and 85.4% and 74.1% (compound 0.1 µM); 104% and 91.9% and 83.3% (compound 0.316 µM); 67.2% and 91.9% and 95.6% (compound 1 µM); 78% and 69.2% and 62.2% (compound 3.16 µM); 36.1% and 31.2% and 33.4% (compound 10 µM). In addition, under “curve of compound”, the pIC50 is 5.19 and 5.25 and 5.29.
`C#Cc1c(F)ccc2cc(O)cc(-c3ncc4c(N5CC6CCC(C5)N6)nc(OCC56CCCN5CC(F)C6)nc4c3F)c12` (stereo not drawn): the viability, T/C is 94.5% and 100% and 95% (compound 0.0316 µM); 109% and 87.3% and 101% (compound 0.1 µM); 78.4% and 86.1% and 85.4% (compound 0.316 µM); 59.5% and 69% and 70.2% (compound 1 µM); 64.2% and 46.4% and 44% (compound 3.16 µM); 28.9% and 34.7% and 36.1% (compound 10 µM). Further, the pIC50 (curve of compound) is 5.42 and 5.55 and 5.60.
As to `COc1cc(C2c3cc4c(cc3C(OC3OC5COC(C)OC5C(O)C3O)C3COC(=O)C23)OCO4)cc(OC)c1O` (stereo not drawn), the viability, T/C runs as follows: (compound 0.0316 µM) 108% and 93.2% and 99.1%; (compound 0.1 µM) 103% and 85.7% and 106%; (compound 0.316 µM) 61.8% and 90.5% and 72.3%; (compound 1 µM) 49.7% and 44.2% and 35.8%; (compound 3.16 µM) 28.1% and 26.1% and 27.6%; (compound 10 µM) 31.2% and 30.3% and 30.4%. In addition, the pIC50 (curve of compound) was 6.15 and 6.06 and 6.21.
In the case of `CC1COCCN1c1cc(C2(S(C)(=N)=O)CC2)nc(-c2ccnc3[nH]ccc23)n1` (stereo not drawn), the viability, T/C (compound 0.0316 µM) was 98.1% and 87.1% and 102%; the viability, T/C (compound 0.1 µM) is 112% and 108% and 84.7%; the viability, T/C (compound 0.316 µM) is 80.3% and 107% and 90.2%; the viability, T/C (compound 1 µM) was 85.9% and 79.2% and 65.2%; the viability, T/C (compound 3.16 µM) was 46.4% and 41.8% and 49.7%; the viability, T/C (compound 10 µM) is 24.2% and 18.7% and 17.1%. Further, where the note is “curve of compound”, the pIC50 was 5.50 and 5.62 and 5.55.
Consider `CC1COCCN1c1cc(C2(O)CC3CCC(C2)O3)c2cnn(-c3ccn[nH]3)c2n1` (stereo not drawn), for which the viability, T/C was 84.1% and 74.7% and 60.4% (compound 0.0316 µM); 62.5% and 69.8% and 72.1% (compound 0.1 µM); 45.6% and 32.8% and 34.3% (compound 0.316 µM); 24.3% and 23.7% and 22.5% (compound 1 µM); 15% and 14% and 18.6% (compound 3.16 µM); 12% and 10.3% (2×) (compound 10 µM). In addition, the pIC50 (curve of compound) is 6.67 and 6.73 and 6.74.
In the case of `CC[C@@]1(O)C(=O)OCc2c1cc1n(c2=O)Cc2cc3c(CN(C)C)c(O)ccc3nc2-1`, the viability, T/C is, setting by setting: (compound 0.000316 µM) 81.3% and 82.1% and 82.2%; (compound 0.001 µM) 103% and 107% and 86.1%; (compound 0.00316 µM) 72.4% and 89.2% and 99%; (compound 0.01 µM) 103% and 118% and 92.3%; (compound 0.0316 µM) 96.8% and 83.6% and 81.2%; (compound 0.1 µM) 49.7% and 61.4% and 63%. The pIC50 (curve of compound) is 7.00 and < 7.00.
Consider `COC1C(OC(N)=O)C(O)C(Oc2ccc3c(O)c(NC(=O)c4ccc(O)c(CC=C(C)C)c4)c(=O)oc3c2C)OC1(C)C` (stereo not drawn), for which, under “compound alone, run of 11/27/2023”, the pIC50 is less than 5.00.
Turning to `COc1cc2cc(C(=O)CCC(=O)O)sc2cc1OC`, the viability, T/C (compound 0.0316 µM) was 106% and 94.9% and 129%; the viability, T/C (compound 0.1 µM) was 67.4% and 98.4% and 94.5%; the viability, T/C (compound 0.316 µM) is 126% and 89.9% and 95.3%; the viability, T/C (compound 1 µM) was 100% and 99.5% and 86.7%; the viability, T/C (compound 3.16 µM) was 84.1% and 107% and 110%; the viability, T/C (compound 10 µM) was 67.2% and 78.6% and 93.8%. Besides, the pIC50 (curve of compound) is less than 5.00.
Turning to `CCc1cc2c(N3CCc4c(cc(Cn5ccnc5)cc4-c4cn(C)nc4C(F)(F)F)C3=O)cc(C)nc2c(OC)n1`, the viability, T/C is 63.3% and 77.3% and 86.5% (compound 0.0316 µM); 98.4% and 69.4% and 64.3% (compound 0.1 µM); 72.6% and 62.2% and 67.1% (compound 0.316 µM); 65.5% and 59.4% and 67.5% (compound 1 µM); 65.5% and 71.2% and 67.9% (compound 3.16 µM); 57.6% and 57% and 58.1% (compound 10 µM). Also, the pIC50 (curve of compound) was less than 5.00.
As for `CCCS(=O)(=O)Nc1ccc(F)c(C(=O)c2c[nH]c3ncc(-c4ccc(Cl)cc4)cc23)c1F`, the viability, T/C by setting is: (compound 0.0316 µM) 113% and 92.8% and 116%; (compound 0.1 µM) 119% and 111% and 89.6%; (compound 0.316 µM) 115% and 103% and 106%; (compound 1 µM) 108% and 102% and 121%; (compound 3.16 µM) 96.3% and 131% and 129%; (compound 10 µM) 46.3% and 53.5% and 37.2%. The pIC50 (curve of compound) is 5.03 and < 5.00 and 5.08.
For `C=CC(=O)N1CCN(c2nc(=O)n(-c3c(C)ccnc3C(C)C)c3nc(-c4c(O)cccc4F)c(F)cc23)C(C)C1` (stereo not drawn), the viability, T/C runs as follows: (compound 0.0316 µM) 83.1% and 99.4% and 81.4%; (compound 0.1 µM) 94.9% and 68.4% and 69.6%; (compound 0.316 µM) 89.5% and 99.7% and 67.9%; (compound 1 µM) 89.7% and 115% and 113%; (compound 3.16 µM) 102% and 110% and 112%; (compound 10 µM) 99.6% and 131% and 105%. In addition, the pIC50 (curve of compound) is less than 5.00.
For `CCc1cc2c(N3CCc4c(cc(Cn5ccnc5)cc4-c4cn(C)nc4C(F)(F)F)C3=O)cc(C)nc2c(OC)n1` + Nc1ccc(C#CCN(C(=O)Cc2ncc(C(F)(F)F)cc2C(F)(F)F)c2ccc(F)cc2)nn1, the pIC50 (curve of first compound, second compound 0.0316 µM) was less than 5.00; the pIC50 (curve of first compound, second compound 0.1 µM) was less than 5.00; the pIC50 (curve of first compound, second compound 0.316 µM) was less than 5.00; the pIC50 (curve of first compound, second compound 1 µM) is less than 5.00; the pIC50 (curve of first compound, second compound 3.16 µM) is less than 5.00; the pIC50 (curve of first compound, second compound 10 µM) was less than 5.00. Besides, the viability, T/C was 93.5% (second compound 0.0316 µM, first compound 0.0316 µM); 62% (second compound 0.0316 µM, first compound 0.1 µM); 63.9% (second compound 0.0316 µM, first compound 0.316 µM); 73.7% (second compound 0.0316 µM, first compound 1 µM); 74.5% (second compound 0.0316 µM, first compound 3.16 µM); 66.7% (second compound 0.0316 µM, first compound 10 µM). Moreover, the viability, T/C is 67.9% (second compound 0.1 µM, first compound 0.0316 µM); 66.2% (second compound 0.1 µM, first compound 0.1 µM); 57.1% (second compound 0.1 µM, first compound 0.316 µM); 52.9% (second compound 0.1 µM, first compound 1 µM); 70.6% (second compound 0.1 µM, first compound 3.16 µM); 57.8% (second compound 0.1 µM, first compound 10 µM). Besides, the viability, T/C is, setting by setting: (second compound 0.316 µM, first compound 0.0316 µM) 74.1%; (second compound 0.316 µM, first compound 0.1 µM) 65%; (second compound 0.316 µM, first compound 0.316 µM) 77.6%; (second compound 0.316 µM, first compound 1 µM) 60.9%; (second compound 0.316 µM, first compound 3.16 µM) 62.3%; (second compound 0.316 µM, first compound 10 µM) 63.5%. Further, the viability, T/C runs as follows: (second compound 1 µM, first compound 0.0316 µM) 89.8%; (second compound 1 µM, first compound 0.1 µM) 60.6%; (second compound 1 µM, first compound 0.316 µM) 65%; (second compound 1 µM, first compound 1 µM) 65.5%; (second compound 1 µM, first compound 3.16 µM) 56.5%; (second compound 1 µM, first compound 10 µM) 49.1%. In addition, the viability, T/C reads like this: (second compound 3.16 µM, first compound 0.0316 µM) 85.2%; (second compound 3.16 µM, first compound 0.1 µM) 63.3%; (second compound 3.16 µM, first compound 0.316 µM) 62%; (second compound 3.16 µM, first compound 1 µM) 58.1%; (second compound 3.16 µM, first compound 3.16 µM) 72.2%; (second compound 3.16 µM, first compound 10 µM) 56.6%. The viability, T/C was 70.5% (second compound 10 µM, first compound 0.0316 µM); 75.1% (second compound 10 µM, first compound 0.1 µM); 82.3% (second compound 10 µM, first compound 0.316 µM); 72.8% (second compound 10 µM, first compound 1 µM); 66.4% (second compound 10 µM, first compound 3.16 µM); 61.1% (second compound 10 µM, first compound 10 µM).
